Peptide text beside a SMILES is read from it. * marks the point of attachment. Biotin = O=C1N[C@H]2[C@H](CS[C@H]2CCCCC(=O)*)N1
How the values were obtained:
Bcl-xL [1] = target: T1, Bcl-xL (Homo sapiens, UniProt Q07817); test: Equilibrium immunoassays (ELISA and AMMP data combined), Kd of ligands for Bcl-xL; assay type: binding
T1 construct: The gene for the first 209 amino acids of Bcl-xL; made in house; host or cells: E. coli BL21(DE3), pET24a vector
Procedure: Sample Preparation. A set of serially diluted Bcl-xL standards, at 2× the desired concentration, were made in sample buffer. For each ligand to be tested (such as peptide ligands), a set of dilutions at 2× the desired concentration was also prepared. The Bcl-xL samples were either mixed 1:1 with sample buffer (standards) or ligands (samples), and allowed to incubate at room temperature for 6 days. After the incubation, the standards and samples were analyzed using ELISA or the ViBE BioAnalyzer (FIG. 1).
ELISA Assays. ELISA plates were incubated overnight at 4° C. with 1.5 nmol of streptavidin (for D1 or Bcl-xL capture ligands) or 54H6 mAb in 1×PBS. Plates were washed 3× with wash buffer (1×PBS+0.1% (v/v) Tween-20) and blocked with 1×PBS+5% (w/v) BSA for two hours. For the D1 or Bcl-xL capture ligands, 100 μL of a 30 nM solution of the reagents was added to wells and incubated for 1 hour. This step was skipped for the 54H6 mAb capture ligand (already immobilized on the plate). After the capture ligand incubation, 100 μL of sample or standards were added in each well, and incubated for 1 hour at room temperature. Plates were washed, incubated with HRP-conjugated probe antibody (such as anti-HIS tag antibody) in sample buffer for 1 hour, washed, and incubated with TMB substrate (Thermo Scientific). Reactions were stopped after approximately 10 minutes with 2 M sulfuric acid, and the absorbance at 450 nm was measured via a plate reader (Molecular Devices). The ligand of interest, capture ligand, target protein, and probe ligand used in example ELISA assays performed are highlighted in the table below.
AMMP Assays. For the AMMP assays, 90 μL of each sample or standards was incubated with 30 μL of magnetic beads (12 μg of beads/mL) and fluorescein-labeled antibody (8 nM) in sample buffer for 1 hour. The experiment's run buffer was 1×PBS+1% (v/v) Tween-20+1% (v/v) heat-treated FBS (Invitrogen; FBS was heat treated for 15 minutes at 65° C. and filtered). BioScale Universal Detection Cartridges were used in performing all of the assays. The device was used per the manufacturer's instructions. The ligand of interest, capture ligand, target protein, and probe ligand used in example AMMP assays performed are highlighted in the table below.
Monovalent and Divalent Analysis. The data for both sets of target concentrations were simultaneously fit for Kd (in the Kd only fit) or Kd and Mo. The data was fitted to the equilibrium model using the lowest absolute deviation method, by varying either only Kd or both Kd and [L]0 simultaneously. The monovalent assay fitting was done by Excel Solver (GRG Non-Lin method) using a set of five initial values. The set of values which provided the lowest error after the fitting were chosen as the final values. For the divalent assays, the fitting was performed by MATLAB's fminsearch function and a set of 10 initial values for Kd1, Kd2, and [L]0. […] For the divalent reverse assay, an extra parameter, Cf, was also determined by fitting (FIG. 7 Reverse Assay).
Enzymatic Kd Calculation Assay. The Kd values of ligands of interest were determined using a protocol modified from Friguet et al., Journal of immunological methods, 77, 305-319 (1985). The samples were prepared and analyzed by ELISA assay in a similar process as described above. The OD450 for the standards and their concentration values were fit to a four parameter logistic curve (standard curve). The concentration of the free Bcl-xL in solution (responsible for the signal) for each sample was calculated using the standard curve, and converted into percent of Bcl-xL bound by ligand in solution.

Bcl-xL [2] = target: T1, Bcl-xL; test: Radiolabeled off-rate assay on immobilized Bcl-xL; assay type: binding
Excerpt: Radiolabeled Off-Rate Assay. The DNA sequences coding for the peptides were ordered from Integrated DNA Technologies (IDT). Each DNA construct contained a T7 RNA Polymerase promoter, and a 5′ deletion mutant of the Tobacco Mosaic Virus (ΔTMV). The C-terminal portion of the peptides were elongated with a flexible serine-glycine linker (six amino acids long) and an HA tag. After gel purification using urea-PAGE, the DNA sequences were PCR amplified using Taq polymerase and in vitro transcribed into mRNA using T7 RNA polymerase. After transcription, the mRNA was urea-PAGE purified and resuspended in deionized water to a final concentration of 30 μM.
The samples were in vitro translated at 30° C. for 1 hour in the translation solution—150 mM KOAc, 750 μM MgCl2, 2 μM mRNA, 1× translation mix (20 mM Hepes-KOH pH 7.6, 100 mM creatine phosphate, 2 mM DTT, and 312.5 μM of each amino acid excluding methionine), ^35S-labeled methionine (Perkin Elmer; 20 μCi for each 25 μL of translation), and 60% (v/v) rabbit reticulocyte lysate. Radiolabeled peptides were purified using magnetic HA beads (Life Technologies) and eluted with 100 μL, 50 mM NaOH, then immediately neutralized with 20 μL of 1 M Tris-HCl, pH 8.0.
The radiolabeled peptides were allowed to bind to 30 pmol immobilized Bcl-xL for 1 hour in sample buffer (1×PBS, 1% (w/v) BSA, 0.1% (v/v) Tween 20, 10 μM biotin). The beads were magnetically separated, and washed 5× with sample buffer. The beads were resuspended in 1 mL of sample buffer containing 3 μM non-biotinylated Bcl-xL (˜100× molar excess relative to immobilized biotinylated Bcl-xL). At various time points, 100 μL of slurry was removed and the beads were magnetically separated and washed. The percent remaining at each time point was determined by dividing the counts per minute (cpm) on beads by total cpm (beads+washes). The peptide off-rate was determined by an exponential fit of the Percent counts on beads vs. Time (s).
The peptide ligands were made using a C-terminal HA tag, and affinity purified.

streptavidin = streptavidin (Streptomyces avidinii, UniProt P22629); settings: literature reference value, Piran et al. 1990; cited from earlier work
Bcl-xL [3] = target: T1, Bcl-xL; test: High-throughput sequencing kinetic (HTSK) on- and off-rates of mRNA-peptide fusions; assay type: binding
Procedure: Preparing the pools of fusion ligands. The DNAs for the final enriched pools from the extension and the doped selection against Bcl-xL were generated. The DNA pools were PCR amplified using Taq polymerase and in vitro transcribed into mRNA using T7 RNA polymerase (Liu et al., Methods Enzymol. 318, 268-293 (2000)). After transcription, the mRNA was urea-PAGE purified and resuspended in deionized water to a final concentration of 30 μM. The mRNA was then ligated to fluorescein-F30P (phosphate-dA21-[dT-fluor]-[C9]3-dAdCdCP; where [dT-fluor] is fluorescein dT (Glen Research), [C9] is spacer 9 (Glen Research), and P is puromycin (Glen Research); synthesized at the Keck Oligo Facility at Yale) using T4 DNA ligase (Takahashi et al., Methods Mol. Biol. 535, 293-314 (2009)). The ligation was performed using a splint complementary to the 3′ end of the RNA and the 5′ end of the DNA-linker. The ligated mRNA was urea-PAGE purified and resuspended in deionized water to final concentration of 30 μM. The samples were in vitro translated in the translation solution-150 mM KOAc, 750 μM MgCl2, 2 μM mRNA, in 1× translation mix (20 mM Hepes-KOH pH 7.6, 100 mM creatine phosphate, 2 mM DTT, and 312.5 μM of each amino acid) and 60% (v/v) rabbit reticulocyte lysate. To prepare radiolabeled peptides or proteins, non-labeled methionine was substituted with ^35S-labeled methionine (Perkin Elmer; 20 μCi for each 25 μL of translation). The translation reactions were incubated at 30° C. for one hour. To form mRNA-protein fusions, KCl and MgCl2 were added to the reaction to final concentrations of 250 mM and 30 mM respectively after translation, and the samples were frozen at −20° C.
To purify the fusion molecules, 100 μL of dT cellulose (25% (v/v) slurry, GE Healthcare) in isolation buffer (100 mM Tris-HCl pH 8.0, 1 M NaCl, 0.2% (v/v) Triton X-100) was added and incubated for 1 hour. The beads were washed five times with 700 μL of isolation buffer, and the fusions were eluted with 3×80 μL of 65° C. water and desalted through Centrisep columns (Princeton Separations). The desalted fusions were adjusted to 1×RT buffer (50 mM Tris-HCl pH 8.3, 75 mM KCl, 3 mM MgCl2, […], […],) and the sample was heated to 65° C. for 5 minutes and cooled on ice to anneal the 3′ primer. After cooling, […] of Superscript II enzyme was added and the reaction incubated at 42° C. for one hour. […]
On- and off-rate experiments. […] The radiolabeled samples were washed 3×, and the beads were counted via a scintillation counter.
To obtain the HTSK off-rates, after the kinetic on-rate experiment, the remaining beads were washed 5× with selection buffer. […] The radiolabeled samples were washed and counted via a scintillation counter. […]

T1 sequence (Q07817 1-209 limits assumed): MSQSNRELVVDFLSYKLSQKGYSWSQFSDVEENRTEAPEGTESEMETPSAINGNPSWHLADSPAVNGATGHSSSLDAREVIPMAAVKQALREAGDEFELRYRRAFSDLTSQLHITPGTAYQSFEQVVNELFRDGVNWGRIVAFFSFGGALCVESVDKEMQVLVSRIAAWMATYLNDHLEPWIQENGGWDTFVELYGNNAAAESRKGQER
streptavidin, sequence (P22629 25-183, species assumed): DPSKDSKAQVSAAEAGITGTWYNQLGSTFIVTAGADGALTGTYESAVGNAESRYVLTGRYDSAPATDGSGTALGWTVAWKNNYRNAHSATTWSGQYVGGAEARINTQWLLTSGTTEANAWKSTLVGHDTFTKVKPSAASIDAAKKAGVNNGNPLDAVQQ

## CC[C@H](C)[C@H](NC(=O)[C@@H](NC(=O)[C@@H](NC(=O)[C@@H](NC(=O)[C@H](CCC(=O)O)NC(=O)[C@@H](NC(=O)[C@@H](N)CCSC)[C@@H](C)CC)[C@@H](C)O)[C@@H](C)CC)[C@@H](C)O)C(=O)N[C@@H](Cc1ccc(O)cc1)C(=O)N[C@@H](CCCCN)C(=O)N[C@@H](Cc1ccc(O)cc1)C(=O)N[C@@H](CCCCN)C(=O)N[C@@H](CCCCN)C(=O)N[C@@H](C)C(=O)N[C@@H](C)C(=O)N[C@@H](CC(=O)O)C(=O)N[C@@H](Cc1c[nH]cn1)C(=O)N[C@@H](Cc1ccccc1)C(=O)N[C@@H](CO)C(=O)N[C@@H](CCSC)C(=O)N[C@@H](CO)C(=O)N[C@@H](CCSC)C(=O)NCC(=O)N[C@@H](CO)C(=O)N[C@@H](CCCCNC(=O)CCCC[C@@H]1SC[C@@H]2NC(=O)N[C@@H]21)C(N)=O [E2] (H-MIETITIYKYKKAADHFSMSMGSK(Biotin)-NH2)
Bcl-xL [1]
  kon: 53000 M⁻¹ s⁻¹
Bcl-xL [1]; Kd, equilibrium ELISA/AMMP assays (Table 1 values)
  Kd: 0.3 nM
Bcl-xL [1]; simultaneous fit of Kd and [L]0, mean ± standard error
  Ratio of Fit [L]0 to Known [L]0: 96% ± 40%
Bcl-xL [2]; radiolabeled peptide-mRNA fusions bound to immobilized Bcl-xL, read-out: koff
  koff: 1.6e-05 s⁻¹

## O=C(O)CCCC[C@@H]1SC[C@@H]2NC(=O)N[C@@H]21 [biotin]
streptavidin
  slowest reported off-rate of biotin and streptavidin: 2.4×10^−6

## MIDTNVILNYKKAADHFSITMGSK [D79]
Bcl-xL [2]; in vitro translated radiolabeled peptides with C-terminal HA tag
  Peptide koff: 5.9e-07 s⁻¹
Bcl-xL [2]; radiolabeled peptide, unit not given
  koff value: 5.9×10^−7
Bcl-xL [3]; from HTSK on- and off-rates
  Kd: 0.0024 nM
Bcl-xL [3]; mRNA-peptide fusions, next-generation sequencing
  HTSK koff: 3.3e-07 s⁻¹

From US20180172683A1, “METHODS FOR ANALYZING THE INTERACTION BETWEEN A TARGET PROTEIN AND A LIGAND” (UNIVERSITY OF SOUTHERN CALIFORNIA, priority 2015, published 2018)
